Values quoted from earlier work as cited in patent publication US20110246079A1, “INDIVIDUAL 5-FLUOROURACILE DOSE OPTIMIZATION IN FOLFOX TREATMENT” (Centre Regional De Lutte Contre, priority 2008, published 2011).

How the values were obtained:
[1] = tested on: patients; conditions: 5-FU treatment
[2] = molecular target: T1, dihydropyrimidine dehydrogenase (DPD) (Homo sapiens, UniProt Q12882); conditions: subject with normal DPD enzymatic activity
T1 construct: This ubiquitous enzyme is a major factor of 5-FU biodisponibility, since in a subject with normal DPD enzymatic activity; endogenous in cells; host or cells: Subject or patient in vivo (enzyme described as ubiquitous)
T1 sequence (Q12882 4-1025): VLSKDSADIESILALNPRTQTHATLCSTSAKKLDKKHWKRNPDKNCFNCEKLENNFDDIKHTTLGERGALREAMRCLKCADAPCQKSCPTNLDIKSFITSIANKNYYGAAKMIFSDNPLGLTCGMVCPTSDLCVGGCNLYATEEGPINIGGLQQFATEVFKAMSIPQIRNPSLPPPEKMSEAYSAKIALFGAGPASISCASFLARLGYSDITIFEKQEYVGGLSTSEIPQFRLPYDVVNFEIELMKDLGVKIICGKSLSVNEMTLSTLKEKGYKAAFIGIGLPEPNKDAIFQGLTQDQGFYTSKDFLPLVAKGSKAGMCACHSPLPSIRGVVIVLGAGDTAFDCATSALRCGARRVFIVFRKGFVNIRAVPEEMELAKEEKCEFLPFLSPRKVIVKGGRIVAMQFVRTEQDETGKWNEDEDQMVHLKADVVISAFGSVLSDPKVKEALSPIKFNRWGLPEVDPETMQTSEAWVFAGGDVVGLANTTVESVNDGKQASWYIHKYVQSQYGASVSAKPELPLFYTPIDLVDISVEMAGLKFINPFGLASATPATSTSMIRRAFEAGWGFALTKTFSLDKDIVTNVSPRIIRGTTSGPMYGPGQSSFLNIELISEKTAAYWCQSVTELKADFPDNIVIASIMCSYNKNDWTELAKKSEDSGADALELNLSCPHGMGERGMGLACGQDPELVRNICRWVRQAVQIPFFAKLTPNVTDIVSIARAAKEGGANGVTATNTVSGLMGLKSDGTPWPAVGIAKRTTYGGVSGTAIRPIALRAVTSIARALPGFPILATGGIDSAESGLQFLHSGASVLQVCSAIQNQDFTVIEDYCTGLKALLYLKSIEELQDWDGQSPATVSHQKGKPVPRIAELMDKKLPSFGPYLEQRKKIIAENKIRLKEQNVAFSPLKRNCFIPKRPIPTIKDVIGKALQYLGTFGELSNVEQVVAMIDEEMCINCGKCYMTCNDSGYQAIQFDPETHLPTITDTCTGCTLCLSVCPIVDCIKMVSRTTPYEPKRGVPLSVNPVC

[3] = tested on: 5-FU metabolism; conditions: in vivo

Compound	death, treated patients [1]	very early polyvisceral toxicity, patients [1]	severe grade 3-4 toxicity ([1]; standard doses)	administered 5-FU available for / metabolized by the anabolic pathway [2]	time for 5-FU plasmatic levels to reach a plateau (after the beginning of the 5-FU continuous infusion)	half-life in blood (in vivo)	effect on 5-FU metabolism [3]
O=c1[nH]cc(F)c(=O)[nH]1 [5-FU, 5-fluorouracile]	0.8%	5-8%	20-25%	20%	about 1 hour	very short	–
O=C1[O][Pt]2([NH][C@@H]3CCCC[C@H]3[NH]2)[O]C1=O [oxaliplatin]	–	–	–	–	–	–	inhibits 5-FU metabolism
